Consider five molecules from patent US5840684A, “Glycopeptide antibiotic derivatives” (Eli Lilly and Company, priority 1995, dated 1998).

In brackets after ≈: the same amount, converted by molar mass.

In experiment [1] the test system is Staphylococcus aureus 491. Put plainly: broth micro-dilution MIC. In kind it is cell-based. The procedure: (§1) The MIC's were determined using a standard broth micro-dilution assay.
(In general: In broth dilution the organism is exposed to a series of concentrations in liquid medium.)

In experiment [2] the test system is Entercoccus faecium 180-1. Put plainly: broth micro-dilution MIC. In kind it is cell-based. The method, then:
as §1

Experiment [3] has as its system Staphylococcus aureus 489. Put plainly: broth micro-dilution MIC. In kind it is cell-based. The method, then: as §1
The test system of experiment [4] is Staphylococcus aureus 446. In words: broth micro-dilution MIC. In kind it is cell-based. The procedure: as §1
Experiment [5] concerns Staphylococcus aureus SA1199. In words: broth micro-dilution MIC. In kind it is cell-based. The method, then:
as §1

Experiment [6] has as its system Streptococcus pyogenes C203. In words: broth micro-dilution MIC. In kind it is cell-based. The method, then: as §1
Experiment [7] deals with Staphylococcus aureus SA1199A. Put plainly: broth micro-dilution MIC. In kind it is cell-based. The method, then: as §1
Experiment [8] has as its system Staphylococcus aureus X400. Put plainly: broth micro-dilution MIC. The class given is cell-based. The method, then:
as §1

For experiment [9], the system named is Staphylococcus aureus 447. In words: broth micro-dilution MIC. The class given is cell-based. The method, then:
as §1

The next experiment concerns Entercoccus faecium 276. In words: broth micro-dilution MIC. The class given is cell-based. The procedure:
as §1

For experiment [10], the system named is vancomycin-resistant enterococci. In words: broth micro-dilution, mean geometric MIC. In kind it is cell-based, Enterococcus faecium and Enterococcus faecalis. Particulars: enterococci, 24-hour incubation.
The subject of experiment [11] is vancomycin-susceptible enterococci. In words: broth micro-dilution, mean geometric MIC. The class given is cell-based, Enterococcus faecium and Enterococcus faecalis. Particulars: enterococci, 24-hour incubation.
The test system of experiment [12] is Staphylococcus aureus S13E. In kind it is cell-based. The method, then:
as §1

The test system of experiment [13] is Staphylococcus aureus SA1199B. In kind it is cell-based. The method, then: as §1
For experiment [14], the system named is Streptococcus pneumoniae P1. In words: broth micro-dilution MIC. The class given is cell-based. The procedure: (§2) The formula I compounds have in vitro and in vivo activity against Gram-positive pathogenic bacteria. The MIC's were determined using a standard broth micro-dilution assay.
The next experiment concerns Entercoccus faecium 180. Put plainly: broth micro-dilution MIC. The class given is cell-based. Particulars: Entercoccus faecium 180. The procedure: as §2
Experiment [15] relates to Staphylococcus haemolyticus 105. In words: broth micro-dilution MIC. The class given is cell-based. The procedure:
as §2

The test system of experiment [16] is Enterococcus gallinarum 245. In words: broth micro-dilution MIC. The class given is cell-based. Particulars: Enterococcus gallinarum 245. The procedure:
as §2

In experiment [17] the test system is Staphylococcus haemolyticus 415. In words: broth micro-dilution MIC. In kind it is cell-based. The method, then:
as §2

A further experiment deals with Entercoccus faecium 2041. Put plainly: broth micro-dilution MIC. The class given is cell-based. Particulars: Entercoccus faecium 2041. The method, then: as §2
Experiment [18] has as its system Staphylococcus epidermidis 270. Put plainly: broth micro-dilution MIC. The class given is cell-based. The method, then:
as §2

Experiment [19] concerns Staphylococcus aureus X778. In words: broth micro-dilution MIC. The class given is cell-based. The method, then: as §1

The MIC is the least concentration at which growth counts as inhibited. A low value points to greater potency. For `CNC(CC(C)C)C(=O)NC1C(=O)NC(CC(N)=O)C(=O)NC2C(=O)NC3C(=O)NC(C(=O)NC(C(=O)O)c4cc(O)cc(O)c4-c4cc3ccc4O)C(OC3CC(C)(N)C(O)C(C)O3)c3ccc(c(Cl)c3)Oc3cc2cc(c3OC2OC(CO)C(O)C(O)C2OC2CC(C)(NCc3ccc(-c4ccc(C(F)(F)F)cc4)cc3)C(O)C(C)O2)Oc2ccc(cc2Cl)C1O` (stereo not drawn) [Compound 216], the minimal inhibitory concentration (MIC) in experiment [1] was 1 µg/mL (≈ 0.547 µM); in [2] it was not above 0.06 µg/mL; in experiment [3] it was 1 µg/mL (≈ 0.547 µM); in experiment [4], 1 µg/mL (≈ 0.547 µM); in [5] it was not above 0.06 µg/mL; in experiment [6], not above 0.06 µg/mL. For the same molecule, the MIC in experiment [7] was 1 µg/mL (≈ 0.547 µM); in experiment [8], 1 µg/mL (≈ 0.547 µM); in experiment [9] it was 1 µg/mL (≈ 0.547 µM); in the experiment on Entercoccus faecium 276 it was 0.5 µg/mL (≈ 0.274 µM); in [12], 1 µg/mL (≈ 0.547 µM); in experiment [13] it was 0.5 µg/mL (≈ 0.274 µM). Moreover, the values for the MIC (in experiment [14]; in the experiment with Entercoccus faecium 180; in experiment [15]) were not above 0.06 µg/mL, not above 0.06 µg/mL and 0.5 µg/mL (≈ 0.274 µM), respectively. Besides, the “mean geometric MIC, Vancomycin Resistant Strains” value in experiment [10] was determined as 0.35 µg/mL. In addition, the “mean geometric MIC, Vancomycin Sensitive Strains” value in experiment [11] is 0.032 µg/mL.
As to `CNC(CC(C)C)C(=O)NC1C(=O)NC(CC(N)=O)C(=O)NC2C(=O)NC3C(=O)NC(C(=O)NC(C(=O)O)c4cc(O)cc(O)c4-c4cc3ccc4O)C(OC3CC(C)(N)C(O)C(C)O3)c3ccc(c(Cl)c3)Oc3cc2cc(c3OC2OC(CO)C(O)C(O)C2OC2CC(C)(NCc3ccc(-c4ccccc4)s3)C(O)C(C)O2)Oc2ccc(cc2Cl)C1O` (stereo not drawn) [Compound 67], the MIC in [1] is 1 µg/mL (≈ 0.567 µM); in experiment [2] it was not above 0.06 µg/mL; in experiment [3] it was not above 0.06 µg/mL; in experiment [5], 1 µg/mL (≈ 0.567 µM); in experiment [7], not above 0.06 µg/mL; in experiment [8] it was 1 µg/mL (≈ 0.567 µM). The MIC in [9] is 1 µg/mL (≈ 0.567 µM); against Entercoccus faecium 276 it was not above 0.06 µg/mL; in experiment [13], 1 µg/mL (≈ 0.567 µM); in [14], not above 0.06 µg/mL; in experiment [16], 2 µg/mL (≈ 1.13 µM); in experiment [17], 2 µg/mL (≈ 1.13 µM). Further, the MIC is not above 0.06 µg/mL with Entercoccus faecium 2041 and 0.5 µg/mL (≈ 0.283 µM) in experiment [18]. In addition, the “mean geometric MIC, Vancomycin Resistant Strains” value in experiment [10] was determined as 1.7 µg/mL. The “mean geometric MIC, Vancomycin Sensitive Strains” value in experiment [11] was 0.16 µg/mL.
As for `CNC(CC(C)C)C(=O)NC1C(=O)NC(CC(N)=O)C(=O)NC2C(=O)NC3C(=O)NC(C(=O)NC(C(=O)O)c4cc(O)cc(O)c4-c4cc3ccc4O)C(OC3CC(C)(N)C(O)C(C)O3)c3ccc(cc3)Oc3cc2cc(c3OC2OC(CO)C(O)C(O)C2OC2CC(C)(NCc3ccc(-c4ccccc4)cc3)C(O)C(C)O2)Oc2ccc(cc2Cl)C1O` (stereo not drawn) [Compound 182], the MIC in experiment [1] was 1 µg/mL (≈ 0.58 µM); in [19] it was 2 µg/mL (≈ 1.16 µM); in [2], not above 0.06 µg/mL; in [3], 2 µg/mL (≈ 1.16 µM); in [4], 2 µg/mL (≈ 1.16 µM); in experiment [5] it was 2 µg/mL (≈ 1.16 µM). Moreover, the MIC in experiment [6] is not above 0.06 µg/mL; in experiment [7] it was not above 0.06 µg/mL; in experiment [8], 1 µg/mL (≈ 0.58 µM); against Entercoccus faecium 276, 1 µg/mL (≈ 0.58 µM); in experiment [13] it was 4 µg/mL (≈ 2.32 µM); in [14], not above 0.06 µg/mL. The MIC in experiment [16] is 1 µg/mL (≈ 0.58 µM); against Entercoccus faecium 180, 2 µg/mL (≈ 1.16 µM); in [17], 4 µg/mL (≈ 2.32 µM); in experiment [15], 2 µg/mL (≈ 1.16 µM); in the experiment on Entercoccus faecium 2041, 1 µg/mL (≈ 0.58 µM). In addition, in experiment [10], the “mean geometric MIC, Vancomycin Resistant Strains” value was 13 µg/mL.
Regarding `C=CCOc1ccc(CNC2(C)CC(OC3C(Oc4c5cc6cc4Oc4ccc(cc4Cl)C(OC4CC(C)(N)C(O)C(C)O4)C4NC(=O)C(NC(=O)C6NC(=O)C(CC(N)=O)NC(=O)C(NC(=O)C(CC(C)C)NC)C(O)c6ccc(c(Cl)c6)O5)c5ccc(O)c(c5)-c5c(O)cc(O)cc5C(C(=O)O)NC4=O)OC(CO)C(O)C3O)OC(C)C2O)cc1` (stereo not drawn) [Compound 7], the MIC in experiment [1] is 2 µg/mL (≈ 1.15 µM); in experiment [2], not above 0.06 µg/mL; in [3], 2 µg/mL (≈ 1.15 µM); in [4], 8 µg/mL (≈ 4.6 µM); in experiment [5] it was 4 µg/mL (≈ 2.3 µM); in experiment [6], not above 0.06 µg/mL. Further, the MIC in experiment [7] was not above 0.06 µg/mL; in [8], 1 µg/mL (≈ 0.575 µM); in experiment [9] it was 4 µg/mL (≈ 2.3 µM); in the experiment with Entercoccus faecium 276, 1 µg/mL (≈ 0.575 µM); in [12], 2 µg/mL (≈ 1.15 µM); in experiment [13] it was 1 µg/mL (≈ 0.575 µM). Also, the MIC in [14] was not above 0.06 µg/mL; in [16] it was 0.5 µg/mL (≈ 0.288 µM); in the experiment on Entercoccus faecium 180, 2 µg/mL (≈ 1.15 µM); in experiment [15], 8 µg/mL (≈ 4.6 µM); in experiment [18] it was 4 µg/mL (≈ 2.3 µM). Moreover, the “mean geometric MIC, Vancomycin Resistant Strains” value in experiment [10] turned out to be 2.8 µg/mL. For the same molecule, the “mean geometric MIC, Vancomycin Sensitive Strains” value in experiment [11] came to 0.43 µg/mL.
Turning to `CNC(CC(C)C)C(=O)NC1C(=O)NC(CC(N)=O)C(=O)NC2C(=O)NC3C(=O)NC(C(=O)NC(C(=O)O)c4cc(O)cc(O)c4-c4cc3ccc4O)C(OC3CC(C)(N)C(O)C(C)O3)c3ccc(c(Cl)c3)Oc3cc2cc(c3OC2OC(CO)C(O)C(O)C2OC2CC(C)(NCc3ccc4ccc5cccc6ccc3c4c56)C(O)C(C)O2)Oc2ccc(cc2Cl)C1O` (stereo not drawn) [Compound 16], the MIC in experiment [1] is 1 µg/mL (≈ 0.553 µM); in experiment [2], 0.125 µg/mL (≈ 0.0692 µM); in experiment [3], 0.5 µg/mL (≈ 0.277 µM); in [4], 4 µg/mL (≈ 2.21 µM); in experiment [5], 2 µg/mL (≈ 1.11 µM); in [6] it was not above 0.06 µg/mL. For the same molecule, the MIC in experiment [7] is not above 0.06 µg/mL; in experiment [8], 0.5 µg/mL (≈ 0.277 µM); in experiment [9], 4 µg/mL (≈ 2.21 µM); against Entercoccus faecium 276 it was 2 µg/mL (≈ 1.11 µM); in experiment [12] it was 1 µg/mL (≈ 0.553 µM); in [13], 1 µg/mL (≈ 0.553 µM). In addition, the MIC in experiment [14] is not above 0.06 µg/mL; in [16], 1 µg/mL (≈ 0.553 µM); in the experiment with Entercoccus faecium 180, 1 µg/mL (≈ 0.553 µM); in [17] it was 4 µg/mL (≈ 2.21 µM); in [15], 8 µg/mL (≈ 4.43 µM); in the experiment on Entercoccus faecium 2041, 0.5 µg/mL (≈ 0.277 µM). Moreover, in [18], the MIC came out at 2 µg/mL (≈ 1.11 µM). Moreover, the “mean geometric MIC, Vancomycin Sensitive Strains” value in experiment [11] was found to be 0.67 µg/mL.
